Data on 25 compounds can be found in ChEMBL document CHEMBL5385893, “Bestatin analogs-4-quinolinone hybrids as antileishmanial hits: Design, repurposing rational, synthesis, in vitro and in silico studies” (Eur J Med Chem, 2023).

Activity calls are given as the source filed them. The calls are words filed in the database; no cut-off is given here.

The term inhibition denotes the drop in the measured response relative to a control, in per cent. The term CC50 denotes the concentration that lowers cell viability or growth by half.

The test system of data set [1] is Leishmania donovani. The data set is described as follows: Antileishmanial activity against promastigotes-based model of Leishmania donovani MHOM/SD/62/1S-CL2D assessed as growth inhibition by measuring metabolism of resazurin to resorufin by aerobic respiration at 25 uM measured after 3 days relative to control. In kind it is functional. Particulars: for inhibition: time 3.0 day; for inhibition at 25 µM: 72 h, time 3 day. In general terms: Resazurin is reduced to fluorescent resorufin, in cell work by metabolically active cells.

The test system of data set [2] is Leishmania donovani. The data set is described as follows: Antileishmanial activity against promastigotes-based model of Leishmania donovani MHOM/SD/62/1S-CL2D assessed as growth inhibition by measuring metabolism of resazurin to resorufin by aerobic respiration at 50 uM measured after 3 days relative to control. In kind it is functional. Conditions: for inhibition: time 3.0 day; for inhibition at 50 µM: 72 h, time 3 day.

Data set [3] in a line: Cytotoxicity against human HEK293T cells assessed as cell death by measuring metabolism of resazurin to resorufin measured after 3 days. In kind it is toxicity, cell-based, HEK-293T. Particulars: time 3 day.
The nature of data set [4]: Cytotoxicity against human THP-1 cells assessed as cell death by measuring metabolism of resazurin to resorufin measured after 3 days. Conditions: time 3 day. It counts as toxicity, cell-based.

With `Cc1c(C(=O)N[C@@H](Cc2ccccc2)C(=O)C(=O)NC(C)C)[nH]c2ccccc2c1=O`, the inhibition entry in the data set with Leishmania donovani [1] and in the data set on Leishmania donovani [2] was “inactive” throughout.
Turning to `Cc1c(C(=O)N[C@@H](Cc2ccccc2)[C@@H](O)C(=O)NCc2ccc(F)cc2)[nH]c2ccccc2c1=O`, the inhibition entry in the data set with Leishmania donovani [1] is “inactive”. Further, the inhibition at 50 µM in the data set with Leishmania donovani [2] was 8%.
Take `Cc1c(C(=O)N[C@@H](Cc2ccccc2)[C@@H](O)C(=O)NCc2ccccc2)[nH]c2ccccc2c1=O`: the half-maximal cytotoxic concentration (CC50) at 72 h is above 200 µM in data set [3] and 93 µM in data set [4]. Further, in the data set with Leishmania donovani [1], the inhibition at 25 µM came out at 53%. Also, the inhibition at 50 µM in the data set on Leishmania donovani [2] is 91%.
For `COc1ccc(CNC(=O)C(=O)[C@H](Cc2ccccc2)NC(=O)c2[nH]c3ccccc3c(=O)c2C)cc1`, in the data set with Leishmania donovani [1], the inhibition result was “inactive”. Also, the inhibition at 50 µM in the data set with Leishmania donovani [2] was 9%.
The matching figures for `COc1ccc(CNC(=O)[C@H](O)[C@H](Cc2ccccc2)NC(=O)c2[nH]c3ccccc3c(=O)c2C)cc1OC`: “inactive” and 23%.
`Cc1c(C(=O)N[C@@H](Cc2ccccc2)C(=O)C(=O)NCc2ccccn2)[nH]c2ccccc2c1=O`: the inhibition result in the data set on Leishmania donovani [1] and in the data set with Leishmania donovani [2] was “inactive” throughout.
With `COc1ccc(CNC(=O)[C@H](O)[C@H](Cc2ccccc2)NC(=O)c2[nH]c3ccccc3c(=O)c2C)cc1`, in the data set on Leishmania donovani [1], the inhibition entry is “inactive”. Besides, the inhibition at 50 µM in the data set with Leishmania donovani [2] turned out to be 16%.
On to `CNC(=O)C(=O)[C@H](Cc1ccccc1)NC(=O)c1[nH]c2ccccc2c(=O)c1C`, for which the inhibition result with Leishmania donovani [1] and in the data set with Leishmania donovani [2] was “inactive” each time.
Turning to `COc1ccc(CCNC(=O)C(=O)[C@H](Cc2ccccc2)NC(=O)c2[nH]c3ccccc3c(=O)c2C)cc1`, the inhibition entry in the data set with Leishmania donovani [1] was “inactive”. Besides, the inhibition at 50 µM in the data set with Leishmania donovani [2] is 23%.
In the case of `CCNC(=O)C(=O)[C@H](Cc1ccccc1)NC(=O)c1[nH]c2ccccc2c(=O)c1C`, the inhibition entry with Leishmania donovani [1] and in the data set on Leishmania donovani [2] was “inactive” throughout.
Turning to `Cc1c(C(=O)N[C@@H](Cc2ccccc2)[C@@H](O)C(=O)NC(C)C)[nH]c2ccccc2c1=O`, the inhibition result in the data set with Leishmania donovani [1] was “inactive”. In addition, the inhibition at 50 µM with Leishmania donovani [2] is 4%.
Consider `Cc1c(C(=O)N[C@@H](Cc2ccccc2)C(=O)C(=O)NCc2ccccc2)[nH]c2ccccc2c1=O`, for which the inhibition at 25 µM with Leishmania donovani [1] worked out at 3%. The inhibition at 50 µM in the data set on Leishmania donovani [2] is 22%.
With `Cc1c(C(=O)N[C@@H](Cc2ccccc2)C(=O)C(N)=O)[nH]c2ccccc2c1=O`, the inhibition result in the data set with Leishmania donovani [1] and with Leishmania donovani [2] was “inactive” each time.
`Cc1c(C(=O)N[C@@H](Cc2ccccc2)C(=O)C(=O)NCc2ccc(F)cc2)[nH]c2ccccc2c1=O`: the inhibition entry in the data set on Leishmania donovani [1] and in the data set on Leishmania donovani [2] was “inactive” each time.
For the compound `Cc1c(C(=O)N[C@@H](Cc2ccccc2)[C@@H](O)C(=O)NCCc2ccccn2)[nH]c2ccccc2c1=O`, the inhibition at 25 µM with Leishmania donovani [1] is 8%. Also, in the data set with Leishmania donovani [2], the inhibition at 50 µM stood at 31%.
For `Cc1c(C(=O)N[C@@H](Cc2ccccc2)[C@@H](O)C(N)=O)[nH]c2ccccc2c1=O`, the CC50 at 72 h in data set [3] and in data set [4] was above 200 µM in each case. Further, the inhibition at 25 µM in the data set on Leishmania donovani [1] was 17%. In addition, the inhibition at 50 µM in the data set on Leishmania donovani [2] came to 51%.
For the compound `Cc1c(C(=O)N[C@@H](Cc2ccccc2)[C@@H](O)C(=O)NCc2ccccn2)[nH]c2ccccc2c1=O`, the inhibition entry in the data set on Leishmania donovani [1] is “inactive”. Moreover, the inhibition at 50 µM with Leishmania donovani [2] amounted to 12%.
`CCCCCCCC/C=C\CCCCCCCCCCCCOP(=O)([O-])OCCC[N+](C)(C)C`: the values for the half-maximal cytotoxic concentration (CC50) at 72 h in data set [3] and in data set [4] were 28 µM and 2 µM, respectively. The inhibition at 25 µM in the data set on Leishmania donovani [1] stood at 106%. The inhibition at 50 µM in the data set with Leishmania donovani [2] is 108%.
On to `Cc1c(C(=O)N[C@@H](Cc2ccccc2)C(=O)C(=O)NCCc2ccccn2)[nH]c2ccccc2c1=O`, for which the inhibition result in the data set with Leishmania donovani [1] and in the data set on Leishmania donovani [2] was “inactive” in each case.
Turning to `Cc1c(C(=O)N[C@@H](Cc2ccccc2)C(=O)C(=O)NCCc2ccccc2)nc2ccccc2c1O`, the results for the CC50 at 72 h in data set [3] and in data set [4] were 107 µM and above 200 µM, respectively. In the data set on Leishmania donovani [1], the inhibition at 25 µM was found to be 38%. Further, the inhibition at 50 µM in the data set on Leishmania donovani [2] worked out at 50%.
As to `CCNC(=O)[C@H](O)[C@H](Cc1ccccc1)NC(=O)c1[nH]c2ccccc2c(=O)c1C`, the inhibition result in the data set on Leishmania donovani [1] was “inactive”. Further, the inhibition at 50 µM with Leishmania donovani [2] came out at 1%.
For the compound `COc1ccc(CCNC(=O)[C@H](O)[C@H](Cc2ccccc2)NC(=O)c2[nH]c3ccccc3c(=O)c2C)cc1`, the inhibition entry in the data set on Leishmania donovani [1] was “inactive”. Also, the inhibition at 50 µM in the data set with Leishmania donovani [2] turned out to be 13%.
With `Cc1c(C(=O)N[C@@H](Cc2ccccc2)[C@@H](O)C(=O)NCCc2ccccc2)[nH]c2ccccc2c1=O`, the inhibition entry in the data set with Leishmania donovani [1] and with Leishmania donovani [2] was “inactive” throughout.
For `COc1ccc(CNC(=O)C(=O)[C@H](Cc2ccccc2)NC(=O)c2[nH]c3ccccc3c(=O)c2C)cc1OC`, the inhibition entry with Leishmania donovani [1] was “inactive”. Besides, in the data set with Leishmania donovani [2], the inhibition at 50 µM amounted to 38%.
In the case of `CNC(=O)[C@H](O)[C@H](Cc1ccccc1)NC(=O)c1[nH]c2ccccc2c(=O)c1C`, the inhibition at 25 µM in the data set with Leishmania donovani [1] was 1%. Besides, the inhibition at 50 µM in the data set with Leishmania donovani [2] was 22%.
